According to PubChem BioAssay AID1963852 (Molecular Pharmacology Branch, DTP, NCI, 2024):

Tested on: 282377-053-R-J1-PDC complex spheroid viability
Assay: Anticancer human tumor 282377-053-R-J1-PDC patient-derived colon adenocarcinoma cell line growth inhibition [POLQ]
Conditions: for IC50: curve of first compound; for viability, T/C: stronger effect = lower value
How it was run: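 Three-cell-type spheroids modelling solid tumor plus stroma served as the readout system; POL inhibitors were tested individually and in combination, concentration ranges set by clinical Cmax where known.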

[1] = second compound 0.0316 µM, first compound 0.0316 µM
[2] = second compound 0.0316 µM, first compound 0.1 µM
[3] = second compound 0.0316 µM, first compound 0.316 µM
[4] = second compound 0.0316 µM, first compound 1 µM
[5] = second compound 0.0316 µM, first compound 3.16 µM
[6] = second compound 0.0316 µM, first compound 10 µM
[7] = second compound 0.1 µM, first compound 0.0316 µM
[8] = second compound 0.1 µM, first compound 0.1 µM
[9] = second compound 0.1 µM, first compound 0.316 µM
[10] = second compound 0.1 µM, first compound 1 µM
[11] = second compound 0.1 µM, first compound 3.16 µM
[12] = second compound 0.1 µM, first compound 10 µM
[13] = second compound 0.316 µM, first compound 0.0316 µM
[14] = second compound 0.316 µM, first compound 0.1 µM
[15] = second compound 0.316 µM, first compound 0.316 µM
[16] = second compound 0.316 µM, first compound 1 µM
[17] = second compound 0.316 µM, first compound 3.16 µM
[18] = second compound 0.316 µM, first compound 10 µM
[19] = second compound 1 µM, first compound 0.0316 µM
[20] = second compound 1 µM, first compound 0.1 µM
[21] = second compound 1 µM, first compound 0.316 µM
[22] = second compound 1 µM, first compound 1 µM
[23] = second compound 1 µM, first compound 3.16 µM
[24] = second compound 1 µM, first compound 10 µM
[25] = second compound 3.16 µM, first compound 0.0316 µM
[26] = second compound 3.16 µM, first compound 0.1 µM
[27] = second compound 3.16 µM, first compound 0.316 µM
[28] = second compound 3.16 µM, first compound 1 µM
[29] = second compound 3.16 µM, first compound 3.16 µM
[30] = second compound 3.16 µM, first compound 10 µM
[31] = second compound 10 µM, first compound 0.0316 µM
[32] = second compound 10 µM, first compound 0.1 µM
[33] = second compound 10 µM, first compound 0.316 µM
[34] = second compound 10 µM, first compound 1 µM
[35] = second compound 10 µM, first compound 3.16 µM
[36] = second compound 10 µM, first compound 10 µM
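Also: spheroids exposed to compounds for seven days.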
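For viability, T/C in this document: 100% = DMSO vehicle control viability.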

CC(C)n1c(=O)n(C)c2cnc3cc(F)c(-c4ccc(OCCCN5CCCCC5)nc4)cc3c21 + Cc1cccc(N(C)C(=O)C2C(O)CCN2c2nc(C)cc(C(F)(F)F)c2C#N)c1
IC50 (second compound 0.0316 µM): > 10 µM
IC50 (second compound 0.1 µM): > 10 µM
IC50 (second compound 0.316 µM): > 10 µM
IC50 (second compound 1 µM): > 10 µM
IC50 (second compound 3.16 µM): > 10 µM
IC50 (second compound 10 µM): > 10 µM
viability, T/C [1]: 97.8%
viability, T/C [2]: 129%
viability, T/C [3]: 99%
viability, T/C [4]: 114%
viability, T/C [5]: 109%
viability, T/C [6]: 88.3%
viability, T/C [7]: 95.2%
viability, T/C [8]: 123%
viability, T/C [9]: 98.2%
viability, T/C [10]: 97.5%
viability, T/C [11]: 129%
viability, T/C [12]: 84.8%
viability, T/C [13]: 99.6%
viability, T/C [14]: 92.3%
viability, T/C [15]: 96%
viability, T/C [16]: 89.5%
viability, T/C [17]: 99.1%
viability, T/C [18]: 73.8%
viability, T/C [19]: 105%
viability, T/C [20]: 99.8%
viability, T/C [21]: 97.7%
viability, T/C [22]: 105%
viability, T/C [23]: 106%
viability, T/C [24]: 93.2%
viability, T/C [25]: 81.5%
viability, T/C [26]: 102%
viability, T/C [27]: 96.4%
viability, T/C [28]: 98.9%
viability, T/C [29]: 97.1%
viability, T/C [30]: 92.7%
viability, T/C [31]: 93.2%
viability, T/C [32]: 87.3%
viability, T/C [33]: 110%
viability, T/C [34]: 81.9%
viability, T/C [35]: 120%
viability, T/C [36]: 82.1%

CC1COCCN1c1cc(-c2ccnn2C)c2ccnc(-c3ccn[nH]3)c2n1 (stereo unspecified) + Cc1cccc(N(C)C(=O)C2C(O)CCN2c2nc(C)cc(C(F)(F)F)c2C#N)c1
IC50 (second compound 0.0316 µM): 0.381 µM
IC50 (second compound 0.1 µM): 0.551 µM
IC50 (second compound 0.316 µM): 0.289 µM
IC50 (second compound 1 µM): 0.362 µM
IC50 (second compound 3.16 µM): 0.479 µM
IC50 (second compound 10 µM): 0.634 µM
viability, T/C [1]: 91.3%
viability, T/C [2]: 86.4%
viability, T/C [3]: 52.6%
viability, T/C [4]: 32.6%
viability, T/C [5]: 26.3%
viability, T/C [6]: 24.5%
viability, T/C [7]: 81.3%
viability, T/C [8]: 80.9%
viability, T/C [9]: 60.6%
viability, T/C [10]: 37.4%
viability, T/C [11]: 29.4%
viability, T/C [12]: 23%
viability, T/C [13]: 97%
viability, T/C [14]: 90.2%
viability, T/C [15]: 44.6%
viability, T/C [16]: 38.4%
viability, T/C [17]: 24.9%
viability, T/C [18]: 21.9%
viability, T/C [19]: 93.5%
viability, T/C [20]: 68.5%
viability, T/C [21]: 54.8%
viability, T/C [22]: 36.2%
viability, T/C [23]: 27.2%
viability, T/C [24]: 22.7%
viability, T/C [25]: 83.9%
viability, T/C [26]: 70.4%
viability, T/C [27]: 61.5%
viability, T/C [28]: 33.1%
viability, T/C [29]: 29.2%
viability, T/C [30]: 22.5%
viability, T/C [31]: 78.8%
viability, T/C [32]: 71%
viability, T/C [33]: 71.6%
viability, T/C [34]: 35.8%
viability, T/C [35]: 32.2%
viability, T/C [36]: 20.8%

CC1COCCN1c1cc(C2(S(C)(=N)=O)CC2)nc(-c2ccnc3[nH]ccc23)n1 (stereo unspecified) + Cc1cccc(N(C)C(=O)C2C(O)CCN2c2nc(C)cc(C(F)(F)F)c2C#N)c1
IC50 (second compound 0.0316 µM): 7.38 µM
IC50 (second compound 0.1 µM): > 10 µM
IC50 (second compound 0.316 µM): > 10 µM
IC50 (second compound 1 µM): > 10 µM
IC50 (second compound 3.16 µM): > 10 µM
IC50 (second compound 10 µM): 5.13 µM
viability, T/C [1]: 113%
viability, T/C [2]: 81.7%
viability, T/C [3]: 108%
viability, T/C [4]: 77.6%
viability, T/C [5]: 66%
viability, T/C [6]: 44%
viability, T/C [7]: 98.3%
viability, T/C [8]: 103%
viability, T/C [9]: 77.5%
viability, T/C [10]: 84.4%
viability, T/C [11]: 71.8%
viability, T/C [12]: 54.3%
viability, T/C [13]: 91.3%
viability, T/C [14]: 101%
viability, T/C [15]: 80.8%
viability, T/C [16]: 89.5%
viability, T/C [17]: 98.2%
viability, T/C [18]: 50.2%
viability, T/C [19]: 107%
viability, T/C [20]: 111%
viability, T/C [21]: 83.6%
viability, T/C [22]: 86.1%
viability, T/C [23]: 69.5%
viability, T/C [24]: 52.5%
viability, T/C [25]: 93%
viability, T/C [26]: 84.4%
viability, T/C [27]: 123%
viability, T/C [28]: 114%
viability, T/C [29]: 64.9%
viability, T/C [30]: 49.7%
viability, T/C [31]: 90.6%
viability, T/C [32]: 73.6%
viability, T/C [33]: 89.1%
viability, T/C [34]: 80.2%
viability, T/C [35]: 55.4%
viability, T/C [36]: 42.7%
